Data published in patent US20250376473A1, “PRMTS INHIBITOR AND USE THEREOF” (Cytosinlab Therapeutics Co., Ltd., priority 2022, published 2025).
Read-outs that look alike come from different tables or passages of the source.

How the values were obtained:
HCT116 MTAP WT cells = assay: Proliferation inhibition of HCT116 cells in vitro (CellTiter Glo); format: cell-based; conditions: 6 days, 9 concentrations starting from 30 μM, read-out: Cell proliferation inhibition rate HCT116 MTAP WT IC50 (nm)
Text: (§1) Biological Test Example 2 Proliferation Inhibition of HCT116 and HCT116 MTAP-KO Cells in Vitro
(§2) HCT116 cell line was purchased from the Chinese Academy of Sciences Cell Bank, and the MTAP gene was knocked out by CRISPR/Cas9 technology to obtain HCT116-MTAP-KO cell line.
(§3) McCoy's 5A medium (Gibco, catalog No. 16600082), fetal bovine serum (Gibco, catalog No. 10099141C), penicillin-streptomycin double antibody (Gibco, catalog No. 15140122), pancreatic enzyme (Gibco, catalog No. 25200056), CellTiter Glo assay kit (Promega, catalog No. G7572), 384-well transparent flat-bottomed black walled cell culture plate (Corning, catalog No. 3764), ultra micro sampler (Tecan, catalog No.D300e), Multimode reader (Biotek, catalog No. SynergyHTX)
(§4) 1. Cell culture: HCT116 and HCT116-MTAP-KO cells were cultured in McCoy'5A medium+10% fetal bovine serum+1% penicillin-streptomycin double antibody; to ensure that they were always in the logarithmic growth phase and the cell viability greater than 95%.
(§5) 2. Compound concentration gradient preparation: The compound to be tested was added to a 384-well plate using an ultra micro sampler, starting from 30 μM (HCT116 cells) or 3 μM (HCT116-MTAP-KO cells), and diluted with DMSO at 3 times for a total of 9 concentrations and set up three duplicate wells.
(§6) 3. Treatment of cells with compounds: Trypsin-digested HCT116 or HCT116-MTAP-KO cell suspension was added to the 384-well plates spotted with the compounds to be tested at 40 μL per well, i.e., 100 cells per well, and the final concentration of DMSO was 0.4%. The cell culture plate was incubated at 37° C. in a 5% CO2 incubator for 6 days.
(§7) 4. Detection: 20 μL of CellTiter Glo reagent was added to each well of the cell culture plate and incubated at room temperature for 30 minutes. A multimode reader was used to detect the luminescence signal at […].
(§8) The data was fitted with GraphPad Prism 8.0 software using a four parameter inhibitor-reaction model to obtain the IC50 value (half inhibitory concentration) of the test compounds.

[1] = test system: HCT116-MTAP-KO cells (HCT116 MTAP null); assay: Proliferation inhibition of HCT116 MTAP-KO cells in vitro (CellTiter Glo); format: cell-based; conditions: 6 days, 9 concentrations starting from 3 μM, read-out: Cell proliferation inhibition rate HCT116 MTAP null IC50 (nm)
Text: as §1, §2, §3, §4, §5, §6, §7, §8

Row | IC50 (HCT116 MTAP WT cells; Homo sapiens, HCT-116, 144 h) | IC50 ([1]; HCT116-MTAP null, 144 h) | IC50 (HCT116 MTAP WT cells) | IC50 [1] | Compound
1 | 1000 to 10000 nM | 100 to 1000 nM | – | – | Cc1ncc2c(N)nc3cc(F)c(C(=O)N(Cc4ccc(C(F)(F)F)cn4)C4COC4)cc3n12 [Example 158]
2 | 1000 to 10000 nM | 100 to 1000 nM | – | – | Cc1ncc2c(N)nc3cc(F)c(C(=O)N4[C@H](C)COC[C@@H]4c4cn5ccccc5n4)cc3n12 [Example 38]
3 | 1000 to 10000 nM | < 100 nM | – | – | Cc1nn(C)cc1N(Cc1ccc(C(F)(F)F)cn1)Cc1cc2c(cc1F)nc(N)c1cnc(C)n12 [Example 208]
4 | 1000 to 10000 nM | 100 to 1000 nM | – | – | Cn1ncc2c(N)nc3cc(F)c(C(=O)N4CCC5(CCN(c6ccc(C(F)(F)F)cc6)CC5)C4)cc3c21 [Example 414]
5 | 1000 to 10000 nM | < 100 nM | – | – | Cc1ncc2c(N)nc3cc(F)c(C(=O)N(Cc4ccc(C(F)(F)F)cn4)c4cnnn4C)cc3n12 [Example 209]
6 | 100 to 1000 nM | < 100 nM | – | – | Cc1ncc2c(N)nc3cc(F)c(C(=O)N(Cc4ccc(S(F)(F)(F)(F)F)cc4)c4ccnn4C)cc3n12 [Example 229]
7 | 1000 to 10000 nM | < 100 nM | – | – | Cc1nn(C)cc1N(Cc1ccc(C(F)(F)F)cn1)C(=O)c1cc2c(cn1)nc(N)c1cnc(C)n12 [Example 183]
8 | 1000 to 10000 nM | 100 to 1000 nM | – | – | CCN(Cc1nc(-c2ccc(C(F)(F)F)nc2)cs1)C(=O)c1cc2c(cc1F)nc(N)c1cnc(C)n12 [Example 73]
9 | 100 to 1000 nM | < 100 nM | – | – | CCn1cc(N(Cc2ccc(C(F)(F)F)cn2)C(=O)c2cc3c(cc2F)nc(N)c2c(C)ncn23)c(C)n1 [Example 150]
10 | – | – | 100 to 1000 nM | < 100 nM | CCc1nn(C)cc1N(Cc1ccc(C(F)(F)F)cn1)C(=O)c1cc2c(cc1F)nc(N)c1cnc(C)n12 [Example 169]
11 | 100 to 1000 nM | < 100 nM | – | – | Cc1ncn2c1c(N)nc1cc(F)c(C(=O)N3[C@H](C)COC[C@@H]3c3ccc(C(F)(F)F)cn3)cc12 [Example 153]
12 | 1000 to 10000 nM | 100 to 1000 nM | – | – | Cc1cccc(-c2ncc(CN(CC(C)C)C(=O)c3ccc4nc(N)c5c(C)ncn5c4c3)[nH]2)n1 [Example 308]
13 | 100 to 1000 nM | < 100 nM | – | – | Cc1nn(C)cc1N(Cc1ccc(OC2COC2)cn1)C(=O)c1cc2c(cc1F)nc(N)c1c(C)ncn12 [Example 195]
14 | 1000 to 10000 nM | < 100 nM | – | – | COc1ccc(CN(C(=O)c2cc3c(cc2F)nc(N)c2cnc(C)n23)c2cn(C)nc2C)nn1 [Example 131]
15 | 1000 to 10000 nM | 100 to 1000 nM | – | – | COCCn1cc(CN(C(=O)c2cc3c(cc2F)nc(N)c2cnc(C)n23)c2ccnn2C)cn1 [Example 221]
16 | 1000 to 10000 nM | 100 to 1000 nM | – | – | Cc1ncc2c(N)nc3cc(F)c(C(=O)N4CCC(c5ccc(C(F)(F)F)cn5)C4)cc3n12 (stereo not shown) [Example 159]
17 | 1000 to 10000 nM | < 100 nM | – | – | Cc1ccc(CN(C(=O)c2cc3c(cc2F)nc(N)c2cnc(C)n23)c2ccnn2C)nc1 [Example 214]
18 | 100 to 1000 nM | 1000 to 10000 nM | – | – | Cc1ncc2c(N)nc3cc(F)c(C(=O)N(C)C4COc5cc(-c6cnn(C(F)(F)F)c6)ccc54)cc3n12 (stereo not shown) [Example 46]
19 | 1000 to 10000 nM | < 100 nM | – | – | Cc1cc(C)c(N(Cc2ccc(C(F)(F)F)cn2)C(=O)c2cc3c(cc2F)nc(N)c2cnc(C)n23)cn1 [Example 194]
20 | 1000 to 10000 nM | < 100 nM | – | – | Cc1nc(C)n2c1c(N)nc1ccc(C(=O)N(Cc3ccc(C(F)(F)F)cn3)C(C)c3ncccn3)cc12 (stereo not shown) [Example 3]
21 | 1000 to 10000 nM | < 100 nM | – | – | CCN(Cc1cn2cc(C(F)F)ccc2n1)C(=O)c1cc2c(cc1F)nc(N)c1c(C)ncn12 [Example 244]
22 | – | < 100 nM | 100 to 1000 nM | – | Cc1ncn2c1c(N)nc1cc(F)c(C(=O)N3C(C)COCC3c3ccc(C(F)(F)F)cn3)cc12 (stereo not shown) [Example 280]
23 | 1000 to 10000 nM | < 100 nM | – | – | Cc1ccc(N(Cc2ccc(C(F)(F)F)cn2)C(=O)c2cc3c(cc2F)nc(N)c2cnc(C)n23)cn1 [Example 139]
24 | 1000 to 10000 nM | < 100 nM | – | – | Cc1nn(C)cc1N(Cc1ccc(OC(F)(F)F)cn1)C(=O)c1cc2c(cc1F)nc(N)c1cnc(C)n12 [Example 157]
25 | 1000 to 10000 nM | < 100 nM | – | – | Cc1nn(C)cc1N(Cc1ccc(C(F)(F)F)nc1)C(=O)c1cc2c(cc1F)nc(N)c1cnc(C)n12 [Example 182]

Row | IC50 (HCT116 MTAP WT cells; Homo sapiens, HCT-116, 144 h) | IC50 ([1]; HCT116-MTAP null, 144 h) | IC50 (HCT116 MTAP WT cells) | IC50 [1] | Compound
26 | 100 to 1000 nM | < 100 nM | – | – | Cc1ncc2c(N)nc3cc(F)c(C(=O)N(Cc4ccc(OC5CC5)cn4)c4ccnn4C)cc3n12 [Example 205]
27 | 1000 to 10000 nM | < 100 nM | – | – | Cc1ncc2c(N)nc3cc(F)c(C(=O)N(Cc4ccc(C(F)(F)F)cn4)c4cn(C)nc4C(F)(F)F)cc3n12 [Example 178]
28 | 1000 to 10000 nM | < 100 nM | – | – | Cc1ncc2c(N)nc3cc(F)c(C(=O)N(Cc4ncc(C(F)(F)F)cc4F)c4cnn(C)c4)cc3n12 [Example 120]
29 | 1000 to 10000 nM | 100 to 1000 nM | – | – | CCN(Cc1ccc(C(F)(F)F)nn1)C(=O)c1cc2c(cc1F)nc(N)c1cnc(C)n12 [Example 81]
30 | 1000 to 10000 nM | < 100 nM | – | – | Cc1cnc(C)c(N(Cc2ccc(C(F)(F)F)cn2)C(=O)c2cc3c(cc2F)nc(N)c2cnc(C)n23)c1 [Example 196]
31 | 1000 to 10000 nM | 100 to 1000 nM | – | – | Cc1ncc2c(N)nc3cc(F)c(C(=O)N(Cc4ccc(C(F)(F)F)nn4)c4cnn(C)c4)cc3n12 [Example 119]
32 | 1000 to 10000 nM | 100 to 1000 nM | – | – | Cc1ncn2c1c(N)nc1ccc(C(=O)N(Cc3nc(-c4cccnn4)cs3)CC(C)C)cc12 [Example 294]
33 | 1000 to 10000 nM | 100 to 1000 nM | – | – | Cc1ncc2c(N)nc3cc(F)c(C(=O)N(Cc4cnn(C5COC5)c4)c4ccnn4C)cc3n12 [Example 231]
34 | 100 to 1000 nM | < 100 nM | – | – | Cc1ncc2c(N)nc3cc(F)c(C(=O)N4C(c5ccc(C(F)F)cn5)COC[C@H]4C)cc3n12 (stereo partly shown) [Example 110]
35 | 1000 to 10000 nM | < 100 nM | – | – | COc1nn(C)cc1N(Cc1ccc(C(F)(F)F)cn1)C(=O)c1cc2c(cc1F)nc(N)c1cnc(C)n12 [Example 138]
36 | < 100 nM | < 100 nM | – | – | CCc1nn(C)cc1N(Cc1ccc(C(F)(F)F)cn1)C(=O)c1cc2c(cc1F)nc(N)c1c(C)ncn12 [Example 184]
37 | 100 to 1000 nM | < 100 nM | – | – | COCCN(Cc1cn2ccccc2n1)C(=O)c1cc2c(cc1F)nc(N)c1cnc(C)n12 [Example 27]
38 | 1000 to 10000 nM | < 100 nM | – | – | CCn1cc(N(Cc2ccc(C(F)(F)F)cn2)C(=O)c2cc3c(cn2)nc(N)c2cnc(C)n23)c(C)n1 [Example 192]
39 | 1000 to 10000 nM | 100 to 1000 nM | – | – | Cc1ncc2c(N)nc3cc(F)c(C(=O)N(C)C4COc5cc(Br)ccc54)cc3n12 (stereo not shown) [Example 40]
40 | 1000 to 10000 nM | 100 to 1000 nM | – | – | Cc1nn(C)cc1N(Cc1ccc(C(F)(F)F)nn1)C(=O)c1cc2c(cc1F)nc(N)c1cnc(C)n12 [Example 127]
41 | 1000 to 10000 nM | < 100 nM | – | – | Cc1ncn2c1c(N)nc1ccc(C(=O)N(Cc3nc(-c4ccccn4)cs3)CC(C)C)cc12 [Example 307]
42 | 1000 to 10000 nM | 1000 to 10000 nM | – | – | Cc1ncc2c(N)nc3cc(F)c(C(=O)N(Cc4cn5cc(C#N)ccc5n4)c4cnn(C)c4)cc3n12 [Example 63]
43 | 1000 to 10000 nM | 100 to 1000 nM | – | – | Cc1ncc2c(N)nc3cc(F)c(C(=O)N(Cc4cnn(CC(F)(F)F)c4)c4ccnn4C)cc3n12 [Example 319]
44 | 1000 to 10000 nM | < 100 nM | – | – | Cc1ncc2c(N)nc3cc(F)c(C(=O)N(Cc4ccc(F)cn4)c4ccnn4C)cc3n12 [Example 207]
45 | 1000 to 10000 nM | < 100 nM | – | – | CCOc1ccc(CN(C(=O)c2cc3c(cc2F)nc(N)c2cnc(C)n23)c2cn(C)nc2C)nc1 [Example 136]
46 | < 100 nM | < 100 nM | – | – | Cc1nn(C)cc1N(Cc1ccc(OC(F)(F)F)cn1)C(=O)c1cc2c(cc1F)nc(N)c1c(C)ncn12 [Example 170]
47 | 1000 to 10000 nM | 100 to 1000 nM | – | – | Cc1ncc2c(N)nc3cc(F)c(C(=O)N(Cc4ccc(OCC(F)(F)F)cn4)c4cnn(C)c4)cc3n12 [Example 116]
48 | 1000 to 10000 nM | – | – | – | Cc1nn(C)cc1N(Cc1cn2cc(C(F)(F)F)ccc2n1)C(=O)c1cc2c(cc1F)nc(N)c1cnn(C)c12 [Example 204]
49 | – | 100 to 1000 nM | – | – | C[C@@H]1COC[C@H](c2cn3ccccc3n2)N1C(=O)c1ccc2nc(N)c3cnn(C)c3c2c1 [Example 416]
50 | 1000 to 10000 nM | – | – | – | Cn1nccc1N(Cc1cn2cc(C(F)(F)F)ccc2n1)C(=O)c1cc2c(cc1F)nc(N)c1cnn(C)c12 [Example 218]
